Reference: patent US9932327B2, “Rohitukine analogs as cyclin-dependent kinase inhibitors and a process for the preparation thereof” (COUNCIL OF SCIENTIFIC AND INDUSTRIAL RESEARCH, priority 2013, dated 2018)
Values after ≈ are worked out from the molar mass of the structure shown. Where two headings read alike, the source gives them in different places.

What was measured:
A-375 (Melanoma) = assay: Cytotoxicity, MTT assay, A-375; assay type: cell-based; settings: Homo sapiens; for inhibition at 10 µM: read-out: Cell Growth Inhibition (%)
Procedure: (§1) Compounds proposed in the present invention were evaluated for their cytotoxic effect against panel of six cancer cell line viz. HL-60 (Leukemia), PC-3 (Prostate), A-375 (Melanoma), MIAPaCa-2 (pancreatic), MCF-7 (Breast) and Caco-2 (Colon) using MTT assay. In each well of a 96-well plate, 3×10^3 cells were grown in 100 μL of medium. After 24 h, each test molecules were added to achieve a final concentration of 10 to 0.01 μmol/L, respectively. After 48 h of treatment, 20 μL of 2.5 mg/mL MTT (Organics Research, Inc.) solution in phosphate buffer saline was added to each well. After 48 h, supernatant was removed and formazan crystals were dissolved in 200 μL of DMSO. Absorbance was then measured at 570 nm using an absorbance plate reader (Bio-Rad Microplate Reader). Data are expressed as the percentage of viable cells in treated relative to non-treated conditions.

MIAPaCa-2 (pancreatic) = assay: Cytotoxicity, MTT assay, MIAPaCa-2; assay type: cell-based; settings: Homo sapiens, MIA PaCa-2, read-out: Cell Growth Inhibition (%)
Procedure: as §1

Caco-2 (Colon) = assay: Cytotoxicity, MTT assay, Caco-2; assay type: cell-based; settings: Homo sapiens; for inhibition at 10 µM: read-out: Cell Growth Inhibition (%)
Procedure: as §1

CDK-9/Cyclin T1 = CDK-9/Cyclin T1 (Homo sapiens (Human), UniProt P50750); assay: Inhibition of CDK-9/cyclin T1; settings: IC50 (nM) CDK-9/T1
Procedure: (50-1000 cpm/pmole) and incubated for 30 mM at room temperature. Assays were stopped by addition of 5 μl of 0.5 M (3%) orthophosphoric acid and then harvested onto P81 Unifilter plates with a wash buffer of 50 mM orthophosphoric acid.

PC-3 (Prostate) = assay: Cytotoxicity, MTT assay, PC-3; assay type: cell-based; settings: for inhibition at 10 µM: read-out: Cell Growth Inhibition (%)
Procedure: as §1

HL-60 (Leukemia) = assay: Cytotoxicity, MTT assay, HL-60; assay type: cell-based; settings: Homo sapiens; for inhibition at 10 µM: read-out: Cell Growth Inhibition (%)
Procedure: as §1

MCF-7 (Breast) = assay: Cytotoxicity, MTT assay, MCF-7; assay type: cell-based; settings: Homo sapiens; for inhibition at 10 µM: MCF7, 10 μM, read-out: Cell Growth Inhibition (%); for IC50: MCF7
Procedure: as §1

CDK-2/cyclin A = CDK-2/cyclin A (Homo sapiens (Human), UniProt P24941); assay: Inhibition of CDK-2/cyclin A; assay type: biochemical
[1] = system: Ehrlich solid tumor (EAC cells); assay: In vivo anticancer activity in Ehrlich solid tumor mice model; design: species or system Swiss mice
Procedure: Ehrlich ascites carcinoma (EAC) cells were collected from the peritoneal cavity of the swiss mice harbouring 8-10 days old ascitic tumor. 1×10^7 EAC cells were injected intramuscularly in right thigh of 31 Swiss male mice selected for the experiment on day 0. The next day, animals were randomized and divided into four groups. Three treatment groups contained 7 animals each and one control group contained 10 animals. Treatment was given as follows:
Group I: Compound 33 (50 mg/kg i/p) from day 1-9.
Group II: Compound 33 (70 mg/kg i/p) from day 1-9.
The third treatment group was treated with 5-fluorouracil (22 mg/kg, i.p) from day 1-9 and it served as positive control. The control group was similarly administered normal saline (0.2 ml, i.p.) from day 1-9. On day 9 & 13, tumor bearing thigh of each animal was shaved and longest and shortest diameters of the tumor were measured with the help of vernier caliper. Tumor weight of each animal was calculated using the following formula.
The percent tumor growth inhibition was calculated on day 13 by comparing the average values of treated groups with that of control group. Tumor growth in saline treated control animals was taken to be 100%.

[2] = Thermodynamic equilibrium solubility; assay type: physicochemical; settings: 25 °C, thermodynamic from solid
Procedure: The compounds were first dissolved in methanol to prepare stock solutions (100 and 1000 μg/mL). Different concentrations of stock solutions were pipetted into the 96-well plates and the solvent was evaporated to ensure that solid drug was present in the beginning of the experiment. […] The plates were kept overnight for equilibration of drug in medium. Later, the plates were centrifuged at 3000 rpm for 15 min (Jouan centrifuge BR4i). Supernatant (50 μl) was pipetted into UV 96-well plates (Corning® 96 Well Clear Flat Bottom UV-Transparent Microplate) for analyses with plate reader (SpectraMax Plus384) at λmax of 350 nm. The analyses were performed in triplicate for each compound. The solubility curve of concentration (μg/mL) vs absorbance was plotted to find out saturation point and the corresponding concentration was noted (Heikkilä, T. et al. Int. J. Pharm. 2011, 405, 132).

CDK1/cyclin B = settings: Gray, N. et al. Curr. Med. Chem. 1999, 6, 859; cited from earlier work
[3] = 22 mg/kg i/p day 1-9, positive control
[4] = water, 25±1° C., read-out: Solubility in μg/mL, Water
[5] = phosphate buffer saline (PBS), aqueous buffer, read-out: Solubility in μg/mL, PBS
[6] = simulated gastric fluid (SGF), simulated gastric fluid, read-out: Solubility in μg/mL, SGF
[7] = simulated intestinal fluid (SIF), fassgf or other biorelevant, read-out: Solubility in μg/mL, SIF

CDK-9/Cyclin T1, sequence (P50750 whole entry): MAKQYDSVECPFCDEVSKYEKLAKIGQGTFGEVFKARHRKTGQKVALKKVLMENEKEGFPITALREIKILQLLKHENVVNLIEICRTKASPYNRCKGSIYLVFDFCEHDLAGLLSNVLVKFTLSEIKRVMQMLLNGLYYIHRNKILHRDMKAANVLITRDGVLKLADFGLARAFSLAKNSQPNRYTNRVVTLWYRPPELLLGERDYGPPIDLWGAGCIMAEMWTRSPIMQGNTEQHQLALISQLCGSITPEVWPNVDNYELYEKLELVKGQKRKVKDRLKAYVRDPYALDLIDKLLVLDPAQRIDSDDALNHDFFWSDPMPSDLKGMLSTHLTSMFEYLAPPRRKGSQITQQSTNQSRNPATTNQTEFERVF
CDK-9/Cyclin T1, sequence (O60563 whole entry partner): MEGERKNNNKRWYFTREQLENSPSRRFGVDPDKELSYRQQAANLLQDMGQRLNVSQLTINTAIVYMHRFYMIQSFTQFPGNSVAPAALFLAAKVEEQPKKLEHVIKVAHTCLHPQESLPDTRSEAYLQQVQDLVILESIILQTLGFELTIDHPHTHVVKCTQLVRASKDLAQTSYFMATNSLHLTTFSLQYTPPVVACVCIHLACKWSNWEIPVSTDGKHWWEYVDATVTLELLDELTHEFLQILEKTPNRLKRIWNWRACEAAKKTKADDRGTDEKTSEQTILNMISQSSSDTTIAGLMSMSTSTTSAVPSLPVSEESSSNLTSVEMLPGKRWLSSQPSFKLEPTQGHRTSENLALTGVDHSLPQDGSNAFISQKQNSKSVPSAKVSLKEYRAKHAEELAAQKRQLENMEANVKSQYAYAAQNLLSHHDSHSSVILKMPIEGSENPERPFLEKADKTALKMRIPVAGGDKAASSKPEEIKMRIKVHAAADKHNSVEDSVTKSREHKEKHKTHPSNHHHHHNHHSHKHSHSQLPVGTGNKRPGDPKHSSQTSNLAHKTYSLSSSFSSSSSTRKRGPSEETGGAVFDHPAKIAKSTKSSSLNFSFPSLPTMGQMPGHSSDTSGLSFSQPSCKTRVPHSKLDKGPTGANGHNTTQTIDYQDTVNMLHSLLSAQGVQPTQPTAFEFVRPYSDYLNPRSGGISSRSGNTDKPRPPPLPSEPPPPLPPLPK

Work on Cc1cc(=O)c2c(O)cc(O)c(C3CCN(C)CC3O)c2o1 (centres unmarked) [Compound 1, 5,7-dihydroxy-8-(3-hydroxy-1-methylpiperidin-4-yl)-2-methyl-4H-chromen-4-one, reference compound] yielded an inhibition at 10 µM (A-375 (Melanoma)) of 41.2%, an inhibition at 10 µM (MIAPaCa-2 (pancreatic)) of 1.46% and an inhibition at 10 µM (Caco-2 (Colon)) of 11.9%. The IC50 (CDK-9/Cyclin T1) was 550 nM, the inhibition at 10 µM (PC-3 (Prostate)) was 32.9% and the IC50 (HL-60 (Leukemia)) was 6 µM. The inhibition at 10 µM (HL-60 (Leukemia)) was 83.3%, the inhibition at 10 µM (MCF-7 (Breast)) was 15.4% and the IC50 (CDK-2/cyclin A) was over 10000 nM.
For O=c1[nH]cc(F)c(=O)[nH]1 [Compound 5-FU, 5-fluorouracil, reference compound], the “Day 13 % Tumor Growth Inhibition” value [1, 3] was 58.50%, the “Day 13 Av. Tumor weights” value [1, 3] was 613.71 mg and the Mortality [1, 3] was 0/7.
For CN1CCC(c2c(O)cc(O)c3c(=O)cc(/C=C/c4ccccc4F)oc23)C(O)C1 (centres unmarked) [Compound 30, 2-(2-Fluorostyryl)-5,7-dihydroxy-8-(3-hydroxy-1-methylpiperidin-4-yl)-4H-chromen-4-one], the IC50 (A-375 (Melanoma)) was 7 µM, the inhibition at 10 µM (A-375 (Melanoma)) was 54.1% and the inhibition at 10 µM (MIAPaCa-2 (pancreatic)) was 21.3%. For the same compound, the IC50 (Caco-2 (Colon)) was 8 µM, the inhibition at 10 µM (Caco-2 (Colon)) was 51% and the IC50 (PC-3 (Prostate)) was 7 µM. It also gave an inhibition at 10 µM (PC-3 (Prostate)) of 72.2%, an IC50 (HL-60 (Leukemia)) of 8 µM and an inhibition at 10 µM (HL-60 (Leukemia)) of 80.5%. The IC50 (MCF-7 (Breast)) was 3 µM and the inhibition at 10 µM (MCF-7 (Breast)) was 81.1%.
In the case of CN1CCC(c2c(O)cc(O)c3c(=O)cc(/C=C/c4c(Cl)cccc4Cl)oc23)C(O)C1 (centres unmarked) [Compound 33, 2-(2,6-dichlorostyryl)-5,7-dihydroxy-8-(3-hydroxy-1-methylpiperidin-4-yl)-4H-chromen-4-one], the IC50 (A-375 (Melanoma)) is reported as 8 µM, the IC50 (Caco-2 (Colon)) is reported as 7 µM and the “Day 13 % Tumor Growth Inhibition” value ([1]; 50 mg/kg i/p day 1-9) is reported as 33.11%. For the same compound, the “Day 13 Av. Tumor weights” value ([1]; 50 mg/kg i/p day 1-9) was 989.12 mg, the Mortality ([1]; 50 mg/kg i/p day 1-9) was 0/7 and the “Day 13 % Tumor Growth Inhibition” value ([1]; 70 mg/kg i/p day 1-9) was 37.65%. For the same compound, the “Day 13 Av. Tumor weights” value ([1]; 70 mg/kg i/p day 1-9) was 922.0 mg, the Mortality ([1]; 70 mg/kg i/p day 1-9) was 0/7 and the IC50 (CDK-9/Cyclin T1) was 2 nM. It also gave an IC50 (PC-3 (Prostate)) of 41 µM, an IC50 (HL-60 (Leukemia)) of 0.9 µM and an IC50 (MCF-7 (Breast)) of 4 µM. It also gave an IC50 (CDK-2/cyclin A) of 16 nM, a solubility [2, 4] of 5 µg/mL (≈ 10.8 µM) and a solubility [2, 5] of 5 µg/mL (≈ 10.8 µM). It also gave a solubility [2, 6] of 40 µg/mL (≈ 86.5 µM) and a solubility [2, 7] of 20 µg/mL (≈ 43.3 µM).
CN1CCC(c2c(O)cc(O)c3c(=O)cc(/C=C/c4c(F)c(F)c(F)c(F)c4F)oc23)C(O)C1 (centres unmarked) [Compound 34, 2-(2,3,4,5,6-pentafluorostyryl)-5,7-dihydroxy-8-(3-hydroxy-1-methylpiperidin-4-yl)-4H-chromen-4-one] showed an IC50 (A-375 (Melanoma)) of 8 µM, an IC50 (Caco-2 (Colon)) of 7 µM and an IC50 (CDK-9/Cyclin T1) of 12 nM. For the same compound, the IC50 (PC-3 (Prostate)) was 30 µM, the IC50 (HL-60 (Leukemia)) was 3 µM and the IC50 (MCF-7 (Breast)) was 4 µM. It also gave an IC50 (CDK-2/cyclin A) of 608 nM, a solubility [2, 4] of 5 µg/mL (≈ 10.3 µM) and a solubility [2, 5] of 10 µg/mL (≈ 20.7 µM). It also gave a solubility [2, 6] of 80 µg/mL (≈ 165 µM) and a solubility [2, 7] of 20 µg/mL (≈ 41.4 µM).
Work on CN1CCC(c2c(O)cc(O)c3c(=O)cc(/C=C/c4cccc(F)c4)oc23)C(O)C1 (centres unmarked) [Compound 35, 2-(3-fluorostyryl)-5,7-dihydroxy-8-(3-hydroxy-1-methylpiperidin-4-yl)-4H-chromen-4-one] yielded an IC50 (CDK-9/Cyclin T1) of 30 nM and an IC50 (CDK-2/cyclin A) of 466 nM.
CN1CCC(c2c(O)cc(O)c3c(=O)cc(/C=C/c4c(Cl)cccc4Cl)oc23)C(O)C1.Cl (centres unmarked) [Hydrochloride salt of 33, 2-(2,6-dichlorostyryl)-5,7-dihydroxy-8-(3-hydroxy-1-methylpiperidin-4-yl)-4H-chromen-4-one hydrochloride] showed a solubility [2, 4] of over 1500 µg/mL, a solubility [2, 5] of 40 µg/mL and a solubility [2, 6] of 40 µg/mL. It also gave a solubility [2, 7] of 10 µg/mL.
In the case of CN1CCC(c2c(O)cc(O)c3c(=O)cc(/C=C/c4c(F)c(F)c(F)c(F)c4F)oc23)C(O)C1.Cl (centres unmarked) [Hydrochloride salt of 34, 2-(2,3,4,5,6-pentafluorostyryl)-5,7-dihydroxy-8-(3-hydroxy-1-methylpiperidin-4-yl)-4H-chromen-4-one hydrochloride], the solubility [2, 4] is reported as over 1500 µg/mL, the solubility [2, 5] is reported as 40 µg/mL and the solubility [2, 6] is reported as 80 µg/mL. For the same compound, the solubility [2, 7] was 40 µg/mL.
For CN(C)c1ncnc2nc[nH]c12 [dimethylaminopurine], the IC50 (CDK1/cyclin B) is given as 120 µM.
